Measurements taken from patent US11020358B2, “Method for the anti-senescence of and/or rejuvenating stem cells” (GWO XI STEM CELL APPLIED TECHNOLOGY CO., LTD., priority 2014, dated 2021).

System: Wister rats
Assay: Liver fibrosis rat model: biochemical functional indexes of cardiac blood
Assay type: in vivo
Conditions: 200 mg/kg TAA i.p. once every three days for 60 days, cardiac blood 4 days after last injection
Method: 200 mg/kg of thioacetamide (TAA) was intraperitoneally injected to 8-week-old male Wister rats (n=35) once every three days for 60 days (i.e., 20 injections in total) to obtain a liver fibrosis rat model (hereinafter referred to as the “TAA group” rat). Additionally, rats that injected with equal volume of normal saline but not TAA were served as a “control group” (n=12). At 4 days after the last injection, four rats in the “control group” and three rats in the “TAA group” were anesthetized with ether and analyzed by the following experiments.
The cardiac blood of the “control group” and “TAA group” rats was collected and measured by a biochemical analyzer (Roche, Integra 800) to analyze the biochemical functional indexes, and thereby, evaluating the extent of hepatic damage. The biochemical functional indexes include the expression level of glutamate oxaloacetate transaminase (GOT), the expression level of glutamate pyruvate transaminase (GPT), the expression level of albumin, the expression level of total bilirubin, and prothrombin time.

**Q.** CC(=N)S [TAA, thioacetamide] was tested. Which Albumin did it give?
**A.** 2.8 ± 0.4 g/dL

**Q.** What about the GOT of the same compound?
**A.** 546 ± 48 Units/L

**Q.** What about the GPT of the same compound?
**A.** 138 ± 47 Units/L

**Q.** And the Prothrombin time?
**A.** 16.4 ± 3.0 s

**Q.** What about the Total bilirubin of the same compound?
**A.** 0.049 ± 0.009 mg/dL
